Experimental data from patent publication US5420335A, “Parenteral nutrients based on watersoluble glycerol bisacetoacetates” (priority 1993, dated 1995).
Several values for one entry are separate records, joined by “and”; a condition that tells them apart may be missing. Equal values may be shown once. Entries after “also recorded” stand apart in the source; their conditions may differ.

Assays:
Type in all cases: in vivo, rat (male Sprague-Dawley)
[1] = Plasma free fatty acids, glucose and ketone bodies after 7 days of infusion; conditions: for T.KB: total ketone bodies
Protocol: (§1) Infusate volume, oral food intake, body weight and urinary volume and total nitrogen were monitored daily for each rat. Infusate volume and food intake were determined by weighing the appropriate container at the start and end of each 24 hr. period. Measurements were recorded between 9 and 10 AM each day. At the end of the 7th day, rats were sacrificed, and blood and liver were harvested. Plasma was separated for measurement of free fatty acids, glucose, and ketone bodies. Liver was weighed and a sample was fixed in buffered formalin for gross histology.
The data were analyzed for significance by the one-way analysis of variance with repeated measures and comparing the effect of dietary treatment on each day. […] The null hypothesis was concluded invalid if p≤0.05. The analysis of variance was computed on a SAS statistical package.

[2] = Daily urinary nitrogen losses of intravenously infused rats
Protocol: Water was available ad libitum at all times.
The vein was then ligated dorsally to the catheter. […] Body weights were measured daily.
as §1
The data were analyzed for significance by the one-way analysis of variance with repeated measures and comparing the effect of dietary treatment on each day. […] The null hypothesis was concluded invalid if p≤0.05. The analysis of variance was computed on a SAS statistical package. […]

[3] = Oral dietary nitrogen (food) intake of intravenously infused rats
[4] = Table 5, Example 2, plasma, end of day 7, average of 7 rats
[5] = Table 5, Example 2, plasma, end of day 7, individual rat
[6] = Table 11, Example 4, plasma, average
[7] = Table 11, Example 4, plasma, individual rat

OC[C@H]1OC(O)[C@H](O)[C@@H](O)[C@@H]1O (some centres unmarked) [Glucose, glucose, reference compound]
ACAC [1, 4]: 0.088 mmol/L
BOHB [1, 4]: 0.505 mmol/L
FFa [1, 4]: 0.564 mmol/L
Glucose [1, 4]: 185.423 mg/dL
ACAC [1, 5]: 0.020 mmol/L and 0.066 mmol/L and 0.194 mmol/L and 0.096 mmol/L and 0.017 mmol/L and 0.031 mmol/L
BOHB [1, 5]: 0.385 mmol/L and 0.476 mmol/L and 0.533 mmol/L and 0.332 mmol/L and 0.358 mmol/L and 1.086 mmol/L and 0.363 mmol/L
FFa [1, 5]: 0.337 mmol/L and 0.976 mmol/L and 0.850 mmol/L and 0.816 mmol/L and 0.168 mmol/L and 0.483 mmol/L and 0.316 mmol/L
Glucose [1, 5]: 196.840 mg/dL and 161.300 mg/dL and 162.620 mg/dL and 164.800 mg/dL and 237.100 mg/dL and 228.500 mg/dL
T.KB [1, 4]: 0.593 mmol/L
T.KB [1, 5]: 0.405 mmol/L and 0.542 mmol/L and 0.727 mmol/L and 0.427 mmol/L and 0.375 mmol/L and 1.280 mmol/L and 0.394 mmol/L
ACAC [1, 6]: 0.029 mmol/L
BOHB [1, 6]: 0.512 mmol/L
Glucose [1, 6]: 214.433 mg/dL
Total FFA [1, 6]: 0.341 mmol/L
ACAC [1, 7]: 0.0085 mmol/L and 0.1195 mmol/L and 0.0177 mmol/L and 0.0095 mmol/L and 0.0038 mmol/L and 0.0145 mmol/L
BOHB [1, 7]: 0.5282 mmol/L and 0.5088 mmol/L and 0.5936 mmol/L and 0.2075 mmol/L and 0.6958 mmol/L and 0.6475 mmol/L and 0.3727 mmol/L and 0.4066 mmol/L and 0.651 mmol/L
Glucose [1, 7]: 263.3 mg/dL and 203.5 mg/dL and 429.3 mg/dL and 208 mg/dL and 284.8 mg/dL and 163.5 mg/dL and 124.9 mg/dL and 116.6 mg/dL
Total FFA [1, 7]: 0.327 mmol/L and 0.231 mmol/L and 0.462 mmol/L and 0.434 mmol/L and 0.525 mmol/L and 0.303 mmol/L and 0.206 mmol/L and 0.395 mmol/L and 0.19 mmol/L
blood / plasma glucose ([1]; in words, end of day 7): significantly elevatea plasma glucose; also recorded: higher for glucose infused rats than for the other two groups
free fatty acid concentration ([1]; in words, plasma, end of day 7): not different for the three groups
Urinary Nitrogen ([2]; Table 2, Example 2, day 1, average of 7 rats): 144 mg
Urinary Nitrogen ([2]; Table 2, Example 2, day 1, individual rat): 164.08 mg and 92.04 mg and 219.2 mg and 80.25 mg and 78.51 mg and 282.44 mg and 88.28 mg
Urinary Nitrogen ([2]; Table 2, Example 2, day 2, average of 7 rats): 146 mg
Urinary Nitrogen ([2]; Table 2, Example 2, day 2, individual rat): 131.95 mg and 74.58 mg and 311.7 mg and 147.44 mg and 42.51 mg and 224.09 mg and 88.37 mg
Urinary Nitrogen ([2]; Table 2, Example 2, day 3, average of 7 rats): 203 mg
Urinary Nitrogen ([2]; Table 2, Example 2, day 3, individual rat): 58.42 mg and 94.88 mg and 599.66 mg and 115.01 mg and 145.05 mg and 174.3 mg and 236.92 mg
Urinary Nitrogen ([2]; Table 2, Example 2, day 4, average of 7 rats): 129 mg
Urinary Nitrogen ([2]; Table 2, Example 2, day 4, individual rat): 109.72 mg and 80.52 mg and 274.22 mg and 93.31 mg and 78.6 mg and 145.43 mg and 124.12 mg
Urinary Nitrogen ([2]; Table 2, Example 2, day 5, average of 7 rats): 177 mg
Urinary Nitrogen ([2]; Table 2, Example 2, day 5, individual rat): 111.02 mg and 125.89 mg and 316.17 mg and 84.8 mg and 224.34 mg and 241.17 mg and 137.97 mg
Urinary Nitrogen ([2]; Table 2, Example 2, day 6, average of 7 rats): 178 mg
Urinary Nitrogen ([2]; Table 2, Example 2, day 6, individual rat): 114.67 mg and 65.54 mg and 227.23 mg and 135.24 mg and 118.95 mg and 333.85 mg and 252.42 mg
Urinary Nitrogen ([2]; Table 2, Example 2, day 7, average of 7 rats): 218 mg
Urinary Nitrogen ([2]; Table 2, Example 2, day 7, individual rat): 71.89 mg and 105.54 mg and 474.91 mg and 159.89 mg and 124.66 mg and 267 mg and 319.39 mg
Urinary Nitrogen ([2]; Table 8, Example 4, day 1, average of 9 rats): 128 mg
Urinary Nitrogen ([2]; Table 8, Example 4, day 1, individual rat): 252 mg and 114.8 mg and 82.1 mg and 75.4 mg and 22.4 mg and 158.4 mg and 133.9 mg and 148.3 mg and 164.3 mg
Urinary Nitrogen ([2]; Table 8, Example 4, day 2, average of 9 rats): 135 mg
Urinary Nitrogen ([2]; Table 8, Example 4, day 2, individual rat): 266.4 mg and 153.9 mg and 105 mg and 57 mg and 91.8 mg and 159.8 mg and 111 mg and 108.9 mg and 158 mg
Urinary Nitrogen ([2]; Table 8, Example 4, day 3, average of 9 rats): 106 mg
Urinary Nitrogen ([2]; Table 8, Example 4, day 3, individual rat): 151 mg and 89.1 mg and 107.2 mg and 68.4 mg and 118.3 mg and 131.9 mg and 135.4 mg and 59.8 mg and 91.8 mg
Urinary Nitrogen ([2]; Table 8, Example 4, day 4, average of 9 rats): 125 mg
Urinary Nitrogen ([2]; Table 8, Example 4, day 4, individual rat): 127.2 mg and 92.7 mg and 114.8 mg and 44.5 mg and 73.8 mg and 165.9 mg and 168.7 mg and 93.6 mg and 240.1 mg
Urinary Nitrogen ([2]; Table 8, Example 4, day 5, average of 9 rats): 131 mg
Urinary Nitrogen ([2]; Table 8, Example 4, day 5, individual rat): 127.8 mg and 97.7 mg and 93.7 mg and 45.9 mg and 84.8 mg and 236.3 mg and 166.4 mg and 123.4 mg and 203.2 mg
Urinary Nitrogen ([2]; Table 8, Example 4, day 6, average of 9 rats): 172 mg
Urinary Nitrogen ([2]; Table 8, Example 4, day 6, individual rat): 256.3 mg and 104.9 mg and 133.7 mg and 72.7 mg and 138.3 mg and 307.5 mg and 146.9 mg and 169.4 mg and 215.2 mg
Urinary Nitrogen ([2]; Table 8, Example 4, day 7, average of 9 rats): 162 mg
Urinary Nitrogen ([2]; Table 8, Example 4, day 7, individual rat): 118.3 mg and 106.6 mg and 175.8 mg and 22.6 mg and 145.6 mg and 384.8 mg and 126.8 mg and 162.4 mg and 212.8 mg
urinary nitrogen losses ([2]; in words, 7 days): Saline infused rats also lost more nitrogen in the urine than did glucose infused rats
Dietary Nitrogen Intake ([3]; Table 1, Example 2, day 1, average of 7 rats): 203 MG N
Dietary Nitrogen Intake ([3]; Table 1, Example 2, day 2, average of 7 rats): 302 MG N
Dietary Nitrogen Intake ([3]; Table 1, Example 2, day 3, average of 7 rats): 291 MG N
Dietary Nitrogen Intake ([3]; Table 1, Example 2, day 4, average of 7 rats): 322 MG N
Dietary Nitrogen Intake ([3]; Table 1, Example 2, day 5, average of 7 rats): 290 MG N
Dietary Nitrogen Intake ([3]; Table 1, Example 2, day 7, average of 7 rats): 354 MG N
Dietary Nitrogen Intake ([3]; Table 7, Example 4, oral only, day 1, average of 9 rats): 279 MG N
Dietary Nitrogen Intake ([3]; Table 7, Example 4, oral only, day 1, individual rat): 500.08 MG N and 388.22 MG N and 164.5 MG N and 151.34 MG N and 78.96 MG N and 421.12 MG N and 329 MG N and 98.7 MG N and 375.06 MG N
Dietary Nitrogen Intake ([3]; Table 7, Example 4, oral only, day 2, average of 9 rats): 369 MG N
Dietary Nitrogen Intake ([3]; Table 7, Example 4, oral only, day 2, individual rat): 519.82 MG N and 513.24 MG N and 500.08 MG N and 98.7 MG N and 269.78 MG N and 434.28 MG N and 342.16 MG N and 243.46 MG N and 401.38 MG N
Dietary Nitrogen Intake ([3]; Table 7, Example 4, oral only, day 3, average of 9 rats): 323 MG N
Dietary Nitrogen Intake ([3]; Table 7, Example 4, oral only, day 3, individual rat): 355.32 MG N and 388.22 MG N and 394.8 MG N and 151.34 MG N and 467.18 MG N and 407.96 MG N and 197.4 MG N
Dietary Nitrogen Intake ([3]; Table 7, Example 4, oral only, day 4, average of 9 rats): 372 MG N
Dietary Nitrogen Intake ([3]; Table 7, Example 4, oral only, day 4, individual rat): 506.66 MG N and 401.38 MG N and 342.16 MG N and 427.7 MG N and 85.54 MG N and 282.94 MG N and 480.34 MG N and 486.92 MG N and 335.58 MG N
Dietary Nitrogen Intake ([3]; Table 7, Example 4, oral only, day 5, average of 9 rats): 379 MG N
Dietary Nitrogen Intake ([3]; Table 7, Example 4, oral only, day 5, individual rat): 493.5 MG N and 421.12 MG N and 368.48 MG N and 335.58 MG N and 0 MG N and 427.7 MG N and 454.02 MG N
Dietary Nitrogen Intake ([3]; Table 7, Example 4, oral only, day 6, average of 9 rats): 382 MG N
Dietary Nitrogen Intake ([3]; Table 7, Example 4, oral only, day 6, individual rat): 500.08 MG N and 454.02 MG N and 375.06 MG N and 329 MG N and 0 MG N and 394.8 MG N and 421.12 MG N and 447.44 MG N and 519.82 MG N
Dietary Nitrogen Intake ([3]; Table 7, Example 4, oral only, day 7, average of 9 rats): 381 MG N
